Measured values from patent US20160374944A1, “COMPOSITIONS AND METHODS FOR TREATING AND PREVENTING CANCER BY TARGETING AND INHIBITING CANCER STEM CELLS” (priority 2011, published 2016).

Experiments:
Assay type in all cases: cell-based, human
Pancreatic CSCs [1] = experiment: apoptosis
Description: (A and B) Induction of apoptosis and activation of caspase-3/-7. Pancreatic CSCs were treated with rottlerin (0-2 μM) for 48 h, and apoptosis and caspase-3/-7 activity were measured by […] and colorometric assay, respectively. […] (C) Pancreatic CSCs were treated with rottlerin (0-1 μM) for 48 h, and the expression of Bcl-2, XIAP and Survivin was measured by qRT-PCR and normalized to GAPDH.
(A) Pancreatic CSCs were treated with SAHA (3 and 5 μM) and 5-Aza-dc (2 and 4 μM) and cell viability was measured at 48 h by staining with trypan blue using Vi-CELL analyzer (Beckman Counter). (B) Pancreatic CSCs were untreated (a) or treated with SAHA (b) or 5-Aza-dC (c) for 48 h, and apoptosis was measured by staining with annexin-PI using Accuri Flow Cytometer. (C) Caspase-3/7 activity was measured in pancreatic CSCs treated with SAHA (0.5 and 2 μM) or 5-Aza-dC (1 and 3 μM) for 25 h.
(A) Regulation of caspase-3/7 activity by EGCG. CSCs were treated with EGCG (0-60 μM) for 24 h, and caspase-3/7 activity was measured as per manufacturer's instructions. […] (B) Regulation of apoptosis by EGCG. CSCs were treated with EGCG (0-60 μM) for 48 h, and apoptosis was measured by TUNEL assay. […] (C) Regulation of apoptosis-related proteins. Pancreatic CSCs were treated with EGCG (0-60 μM) for 36 h. Real time PCR (q-RT-PCR) was performed to examine the expression of Bcl-2, survivin, XIAP, and GAPDH.
FIG. 42A and FIG. 42B show graphs showing quercetin synergizes with EGCG to inhibit self-renewal capacity, invasion, migration, and TCF/LEF and Gli transcriptional activities in pancreatic CSCs. (A) Effects of EGCG and quercetin on spheroid and colony formation. Upper Panel, uercetin synergizes with EGCG to inhibit spheroid's cell viability. CSCs were seeded in suspension and treated with EGCG (0-60 μM) with or without quercetin (20 μM) for 7 days. At the end of incubation period, all the spheroids were collected and resuspended. Cell viability was measured by trypan blue assay. […] Lower panel, uercetin synergizes with EGCG to inhibit colony formation. Pancreatic CSCs were seeded in soft agar and treated with various doses of EGCG (0-60 μM) with or without quercetin (20 μM) and incubated at […] for 21 days. At the end of incubation period, colonies were counted. […] (B) Effects of EGCG and quercetin on invasion and migration. Upper panel, Matrigel invasion assay. CSCs were plated onto the Matrigel-coated membrane in the top chamber of the transwell and treated with EGCG (0-60 μM) with or without quercetin (20 μM) for 48 hrs. Cells invaded to the lower chambered were fixed with methanol, stained with crystal violet and counted. […] Lower panel, Transwell migration assay. Pancreatic CSCs were plated in the top chamber of the transwell and treated with EGCG (0-60 μM) with or without quercetin (20 μM) for 48 hrs. Cells migrated to the lower chambered were fixed with methanol, stained with crystal violet and counted. […] (C) Quercetin synergizes with EGCG to induce apoptosis. CSCs were seeded in suspension and treated with EGCG (0-60 μM) with or without quercetin (20 μM) for 7 days. At the end of incubation period, all the spheroids were collected. Apoptosis was measured by TUNEL assay. […] (D) Effects of EGCG and quercetin on TCF/LEF and Gli transcriptional activities. Pancreatic CSCs were transduced with either lentivirus encoding TCF/LEF responsive GFP and luciferase genes or Gli-responsive GFP and luciferase genes. Transduced CSCs were treated with EGCG (40 μM) with or without quercetin (20 μM) for 48 hrs and the luciferase activity was measured.
Pancreatic CSCs were (a) untreated, (b) treated with SAHA, or (c) treated with 5-Aza-dC for 48 hours and apoptosis was measured by staining with annexin-PI using Accuri Flow Cytometer. The results of those studies are illustrated in FIG. 31B.

Pancreatic CSCs [2] = experiment: Matrigel invasion assay
Description: (A and B) Pancreatic CSCs were treated with rottlerin (0-1 μM) for 24 h. The expression of Zeb-1 and Slug was measured by the qRT-PCR and normalized to GAPDH. […] (C) In vitro Matrigel invasion assay. CSCs were plated onto the Matrigel-coated membrane in the top chamber of the transwell and treated with rottlerin (0-2 μM) for 48 h. Cells invaded to the lower chamber were fixed with methanol, stained with crystal violet and photo micrographed.
(A) Pancreatic CSCs were treated with EGCG (0-60 μM) for 48 h. At the end of incubation period, the expression of Snail, ZEB1 and Slug was measured by q-RT-PCR. […] (B) Transwell migration assay. Pancreatic CSCs were plated in the top chamber of the transwell and treated with EGCG (0-60 μM) for 24 h. Cells migrated to the lower chambered were fixed with methanol, stained with crystal violet and counted. […] (C) Matrigel invasion assay. CSCs were plated onto the Matrigel-coated membrane in the top chamber of the transwell and treated with EGCG (0-60 μM) for 48 h. Cells invaded to the lower chambered were fixed with methanol, stained with crystal violet and counted. […] (D) Effects of EGCG on TCF-1/LEF activity. Pancreatic CSCs were transduced with TCF/LEF responsive GFP/firefly luciferase viral particles (pGreen Fire1-Gli with EF1, System Biosciences). Transduced CSCs were treated with EGCG (0-60) for 48 h and the GFP fluorescence was measured.
FIG. 42A and FIG. 42B show graphs showing quercetin synergizes with EGCG to inhibit self-renewal capacity, invasion, migration, and TCF/LEF and Gli transcriptional activities in pancreatic CSCs. (A) Effects of EGCG and quercetin on spheroid and colony formation. Upper Panel, uercetin synergizes with EGCG to inhibit spheroid's cell viability. CSCs were seeded in suspension and treated with EGCG (0-60 μM) with or without quercetin (20 μM) for 7 days. At the end of incubation period, all the spheroids were collected and resuspended. Cell viability was measured by trypan blue assay. […] Lower panel, uercetin synergizes with EGCG to inhibit colony formation. Pancreatic CSCs were seeded in soft agar and treated with various doses of EGCG (0-60 μM) with or without quercetin (20 μM) and incubated at […] for 21 days. At the end of incubation period, colonies were counted. […] (B) Effects of EGCG and quercetin on invasion and migration. Upper panel, Matrigel invasion assay. […] Cells invaded to the lower chambered were fixed with methanol, stained with crystal violet and counted. […] Cells migrated to the lower chambered were fixed with methanol, stained with crystal violet and counted. […] Apoptosis was measured by TUNEL assay. […] Transduced CSCs were treated with EGCG (40 μM) with or without quercetin (20 μM) for 48 hrs and the luciferase activity was measured.

Prostate CSCs = experiment: cell viability, trypan blue, Vi-CELL analyzer; conditions: 3 days
Description: Prostate CSCs were treated with resveratrol (0-20 μM), curcumin (0-20 μM), honokiol (0-20 μM) and diallyl trisulphide (0-10 μM) for 3 days, and cell viability was measured by staining with trypan blue using Vi-CELL analyzer (Beckman Counter).
Prostate CSCs were treated with sulforaphane (0-20 μM), rottlerin (0-5 μM), EGCG (0-40 μM) and embelin (0-1 μM) for 3 days, and cell viability was measured by staining with trypan blue using Vi-CELL analyzer (Beckman Counter).
Prostate CSCs were treated with resveratrol (0-20 μM), curcumin (0-20 μM), honokiol (0-20 μM), and diallyl trisulphide (0-10 μM) for 3 days and cell viability was measured by staining with trypan blue using Vi-CELL analyzer. The results of those studies are illustrated in FIG. 25.
Prostate CSCs were treated with sulforaphane (0-20 μM), rottlerin (0-5 μM), EGCG (0-40 μM), and embelin (0-1 μM) for 3 days and cell viability was measured by staining with trypan blue using Vi-CELL analyzer. The results of those studies are illustrated in FIG. 26.

[3] = EGCG 0-60 μM with or without quercetin 20 μM, 7 days, spheroids, TUNEL assay
[4] = EGCG 0-60 μM with or without quercetin 20 μM, 48 hrs

SMILES	apoptosis (Pancreatic CSCs [1]; [3])	apoptosis (Pancreatic CSCs [1]; EGCG 0-60 μM, 48 h, TUNEL assay)	invasion (Pancreatic CSCs [2]; [4])	invasion (Pancreatic CSCs [2]; EGCG 0-60 μM, 48 h)	cell viability (Prostate CSCs)	apoptosis (Pancreatic CSCs [1]; rottlerin 0-2 μM, 48 h)	in vitro invasion (Pancreatic CSCs [2]; rottlerin 0-2 μM, 48 h, Matrigel)
O=C(O[C@@H]1Cc2c(O)cc(O)cc2O[C@@H]1c1cc(O)c(O)c(O)c1)c1cc(O)c(O)c(O)c1 [EGCG, epigallocatechin gallate]	induced apoptosis	induced caspase-3/7 activity and apoptosis in pancreatic CSCs in a dose-dependent manner	inhibited cell viability in spheroids, colony formation, migration and invasion by CSCs in a dose-dependent manner	inhibited	inhibit cell viability		
C[S+]([O-])CCCCN=C=S (centres unmarked) [sulforaphane]					inhibit cell viability		
O=c1c(O)c(-c2ccc(O)c(O)c2)oc2cc(O)cc(O)c12 [quercetin]	induced apoptosis		effective alone				
CC(=O)c1c(O)c(C)c(O)c(Cc2c(O)c3c(c(C(=O)/C=C/c4ccccc4)c2O)OC(C)(C)C=C3)c1O [rottlerin]					inhibit cell viability	induced	inhibited the in vitro invasion
